Measured values: ChEMBL document CHEMBL1137647, “vanD and vanG-like gene clusters in a Ruminococcus species isolated from human bowel flora” (2007)

Tested on: Ruminococcus sp.
Assay: Antimicrobial activity against Ruminococcus sp. CCRI-16110 containing vanD-like gene by agar dilution method
Format: functional

| SMILES | MIC [µg/mL] |
| --- | --- |
| CN[C@H](CC(C)C)C(=O)N[C@H]1C(=O)N[C@@H](CC(N)=O)C(=O)N[C@H]2C(=O)N[C@H]3C(=O)N[C@H](C(=O)N[C@H](C(=O)O)c4cc(O)cc(O)c4-c4cc3ccc4O)[C@H](O)c3ccc(c(Cl)c3)Oc3cc2cc(c3O[C@@H]2O[C@H](CO)[C@@H](O)[C@H](O)[C@H]2O[C@H]2C[C@](C)(N)[C@H](O)[C@H](C)O2)Oc2ccc(cc2Cl)[C@H]1O [VANCOMYCIN] | > 256 |
| Cc1ncc([N+](=O)[O-])n1CCO [METRONIDAZOLE] | < 0.125 |
